According to patent US7875647B2, “Heteroaryl-pyrazole derivatives as cannabinoid CB1 receptor antagonists” (Green Cross Corporation, priority 2006, dated 2011):

Molecular target: T1, Cannabinoid-1 receptor (CB1R) (Rattus norvegicus, UniProt P20272)
T1 construct: The tissue obtained from the brain of SD rats was homogenized; from tissue; host or cells: brain of SD rats (membrane pellet of the homogenate)
Experiment: Cannabinoid-1 receptor (CB1R) binding affinity assay ([3H]CP-55940, rat CB-1 receptor binding protocol)
Conditions: brain tissue of SD rats, [3H]CP-55940, 30° C. 60 min; read-out: IC50

T1 sequence (P20272 whole entry): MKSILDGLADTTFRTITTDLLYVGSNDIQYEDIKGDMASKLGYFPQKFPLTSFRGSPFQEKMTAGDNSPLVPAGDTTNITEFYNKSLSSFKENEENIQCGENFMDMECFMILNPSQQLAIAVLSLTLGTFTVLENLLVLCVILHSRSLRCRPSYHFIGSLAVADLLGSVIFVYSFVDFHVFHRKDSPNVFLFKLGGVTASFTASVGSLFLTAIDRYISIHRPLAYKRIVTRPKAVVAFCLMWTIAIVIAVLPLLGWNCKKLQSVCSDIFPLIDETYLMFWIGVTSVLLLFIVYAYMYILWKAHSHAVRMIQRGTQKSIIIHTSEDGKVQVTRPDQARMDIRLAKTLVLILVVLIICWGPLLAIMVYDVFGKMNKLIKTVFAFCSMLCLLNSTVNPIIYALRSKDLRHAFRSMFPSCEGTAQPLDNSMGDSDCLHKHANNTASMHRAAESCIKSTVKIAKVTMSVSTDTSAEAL

Structure (SMILES) | IC50
Clc1ccc(-c2c(Br)c(-c3nnc(C4(c5ccc(Cl)cc5)CC4)s3)nn2-c2ccc(Cl)cc2Cl)cc1 [Example 547, 2-(4-bromo-5-(4-chlorophenyl)-1-(2,4-dichlorophenyl)-1H-pyrazol-3-yl)-5-(1-(4-chlorophenyl)cyclopropyl)-1,3,4-thiadiazole] | 12.9 nM
CCCn1nnnc1-c1nn(-c2ccc(Cl)cc2Cl)c(-c2ccc(Cl)cc2)c1C [Example 565, 5-(5-(4-Chlorophenyl)-1-(2,4-dichlorophenyl)-4-methyl-1H-pyrazol-3-yl)-1-propyl-1H-tetrazole] | 68.9 nM
CCCn1nnc(-c2nn(-c3ccc(Cl)cc3Cl)c(-c3ccc(Cl)cc3)c2C)n1 [Example 566, 5-(5-(4-Chlorophenyl)-1-(2,4-dichlorophenyl)-4-methyl-1H-pyrazol-3-yl)-2-propyl-2H-tetrazole] | 62.1 nM
CCn1nnnc1-c1nn(-c2ccc(Cl)cc2Cl)c(-c2ccc(Cl)cc2)c1C [Example 569, 5-(5-(4-Chlorophenyl)-1-(2,4-dichlorophenyl)-4-methyl-1H-pyrazol-3-yl)-1-ethyl-1H-tetrazole] | 202 nM
CCCCCn1nnnc1-c1nn(-c2ccc(Cl)cc2Cl)c(-c2ccc(Cl)cc2)c1C [Example 573, 5-(5-(4-Chlorophenyl)-1-(2,4-dichlorophenyl)-4-methyl-1H-pyrazol-3-yl)-1-pentyl-1H-tetrazole] | 184 nM
CCCCCn1nnc(-c2nn(-c3ccc(Cl)cc3Cl)c(-c3ccc(Cl)cc3)c2C)n1 [Example 574, 5-(5-(4-Chlorophenyl)-1-(2,4-dichlorophenyl)-4-methyl-1H-pyrazol-3-yl)-2-pentyl-2H-tetrazole] | 122 nM
Cc1c(-c2nnnn2C(C)C)nn(-c2ccc(Cl)cc2Cl)c1-c1ccc(Cl)cc1 [Example 575, 5-(5-(4-Chlorophenyl)-1-(2,4-dichlorophenyl)-4-methyl-1H-pyrazol-3-yl)-1-isopropyl-1H-tetrazole] | 166 nM
Cc1c(-c2nnn(C(C)C)n2)nn(-c2ccc(Cl)cc2Cl)c1-c1ccc(Cl)cc1 [Example 576, 5-(5-(4-Chlorophenyl)-1-(2,4-dichlorophenyl)-4-methyl-1H-pyrazol-3-yl)-2-isopropyl-2H-tetrazole] | 101 nM
Cc1c(-c2nnnn2C2CCCC2)nn(-c2ccc(Cl)cc2Cl)c1-c1ccc(Cl)cc1 [Example 577, 5-(5-(4-Chlorophenyl)-1-(2,4-dichlorophenyl)-4-methyl-1H-pyrazol-3-yl)-1-cyclopentyl-1H-tetrazole] | 26.5 nM
Cc1c(-c2nnn(C3CCCC3)n2)nn(-c2ccc(Cl)cc2Cl)c1-c1ccc(Cl)cc1 [Example 578, 5-(5-(4-Chlorophenyl)-1-(2,4-dichlorophenyl)-4-methyl-1H-pyrazol-3-yl)-2-cyclopentyl-2H-tetrazole] | 67.9 nM
Cc1c(-c2nnn(C3CCCCC3)n2)nn(-c2ccc(Cl)cc2Cl)c1-c1ccc(Cl)cc1 [Example 580, 5-(5-(4-Chlorophenyl)-1-(2,4-dichlorophenyl)-4-methyl-1H-pyrazol-3-yl)-2-cyclohexyl-2H-tetrazole] | 75.8 nM
Cc1c(-c2nnn(Cc3ccccc3)n2)nn(-c2ccc(Cl)cc2Cl)c1-c1ccc(Cl)cc1 [Example 582, 2-Benzyl-5-(5-(4-chlorophenyl)-1-(2,4-dichlorophenyl)-4-methyl-1H-pyrazol-3-yl)-2H-tetrazole] | 105 nM
Cc1c(-c2nnnn2Cc2ccccn2)nn(-c2ccc(Cl)cc2Cl)c1-c1ccc(Cl)cc1 [Example 583, 2-((5-(5-(4-Chlorophenyl)-1-(2,4-dichlorophenyl)-4-methyl-1H-pyrazol-3-yl)-1H-tetrazol-1-yl)methyl)pyridine] | 105 nM
Cc1c(-c2nnn(Cc3ccccn3)n2)nn(-c2ccc(Cl)cc2Cl)c1-c1ccc(Cl)cc1 [Example 584, 2-((5-(5-(4-Chlorophenyl)-1-(2,4-dichlorophenyl)-4-methyl-1H-pyrazol-3-yl)-2H-tetrazol-2-yl)methyl)pyridine] | 93 nM
Cc1c(-c2nnnn2Cc2cccnc2)nn(-c2ccc(Cl)cc2Cl)c1-c1ccc(Cl)cc1 [Example 585, 3-((5-(5-(4-Chlorophenyl)-1-(2,4-dichlorophenyl)-4-methyl-1H-pyrazol-3-yl)-1H-tetrazol-1-yl)methyl)pyridine] | 103 nM
Cc1c(-c2nnn(Cc3cccnc3)n2)nn(-c2ccc(Cl)cc2Cl)c1-c1ccc(Cl)cc1 [Example 586, 3-((5-(5-(4-Chlorophenyl)-1-(2,4-dichlorophenyl)-4-methyl-1H-pyrazol-3-yl)-2H-tetrazol-2-yl)methyl)pyridine] | 100 nM
Cc1c(-c2nnnn2Cc2ccncc2)nn(-c2ccc(Cl)cc2Cl)c1-c1ccc(Cl)cc1 [Example 587, 4-((5-(5-(4-Chlorophenyl)-1-(2,4-dichlorophenyl)-4-methyl-1H-pyrazol-3-yl)-1H-tetrazol-1-yl)methyl)pyridine] | 88.2 nM
Cc1c(-c2nnn(Cc3ccncc3)n2)nn(-c2ccc(Cl)cc2Cl)c1-c1ccc(Cl)cc1 [Example 588, 4-((5-(5-(4-Chlorophenyl)-1-(2,4-dichlorophenyl)-4-methyl-1H-pyrazol-3-yl)-2H-tetrazol-2-yl)methyl)pyridine] | 135 nM

Structure (SMILES) | IC50
Cc1c(-c2nnn(CC3CCCCC3)n2)nn(-c2ccc(Cl)cc2Cl)c1-c1ccc(Cl)cc1 [Example 590, 5-(5-(4-Chlorophenyl)-1-(2,4-dichlorophenyl)-4-methyl-1H-pyrazol-3-yl)-2-(cyclohexylmethyl)-2H-tetrazole] | 85.3 nM
Cc1c(-c2nnnn2CCc2ccccc2)nn(-c2ccc(Cl)cc2Cl)c1-c1ccc(Cl)cc1 [Example 591, 5-(5-(4-Chlorophenyl)-1-(2,4-dichlorophenyl)-4-methyl-1H-pyrazol-3-yl)-1-phenethyl-1H-tetrazole] | 135 nM
Cc1c(-c2nnn(CCc3ccccc3)n2)nn(-c2ccc(Cl)cc2Cl)c1-c1ccc(Cl)cc1 [Example 592, 5-(5-(4-Chlorophenyl)-1-(2,4-dichlorophenyl)-4-methyl-1H-pyrazol-3-yl)-2-phenethyl-2H-tetrazole] | 122 nM
Cc1c(-c2nnnn2Cc2ccco2)nn(-c2ccc(Cl)cc2Cl)c1-c1ccc(Cl)cc1 [Example 593, 5-(5-(4-Chlorophenyl)-1-(2,4-dichlorophenyl)-4-methyl-1H-pyrazol-3-yl)-1-(furan-2-ylmethyl)-1H-tetrazole] | 53.8 nM
Cc1c(-c2nnn(Cc3ccco3)n2)nn(-c2ccc(Cl)cc2Cl)c1-c1ccc(Cl)cc1 [Example 594, 5-(5-(4-Chlorophenyl)-1-(2,4-dichlorophenyl)-4-methyl-1H-pyrazol-3-yl)-2-(furan-2-ylmethyl)-2H-tetrazole] | 93.8 nM
Cc1c(-c2nnnn2Cc2ccoc2)nn(-c2ccc(Cl)cc2Cl)c1-c1ccc(Cl)cc1 [Example 595, 5-(5-(4-Chlorophenyl)-1-(2,4-dichlorophenyl)-4-methyl-1H-pyrazol-3-yl)-1-(furan-3-ylmethyl)-1H-tetrazole] | 105 nM
Cc1c(-c2nnn(Cc3ccoc3)n2)nn(-c2ccc(Cl)cc2Cl)c1-c1ccc(Cl)cc1 [Example 596, 5-(5-(4-Chlorophenyl)-1-(2,4-dichlorophenyl)-4-methyl-1H-pyrazol-3-yl)-2-(furan-3-ylmethyl)-2H-tetrazole] | 195 nM
Cc1c(-c2nnnn2Cc2ccsc2)nn(-c2ccc(Cl)cc2Cl)c1-c1ccc(Cl)cc1 [Example 597, 5-(5-(4-Chlorophenyl)-1-(2,4-dichlorophenyl)-4-methyl-1H-pyrazol-3-yl)-1-(thiophen-3-ylmethyl)-1H-tetrazole] | 39.8 nM
Cc1c(-c2nnn(Cc3ccsc3)n2)nn(-c2ccc(Cl)cc2Cl)c1-c1ccc(Cl)cc1 [Example 598, 5-(5-(4-Chlorophenyl)-1-(2,4-dichlorophenyl)-4-methyl-1H-pyrazol-3-yl)-2-(thiophen-3-ylmethyl)-2H-tetrazole] | 77.6 nM
Cc1c(-c2nnnn2C2CC2)nn(-c2ccc(Cl)cc2Cl)c1-c1ccc(Cl)cc1 [Example 599, 5-(5-(4-Chlorophenyl)-1-(2,4-dichlorophenyl)-4-methyl-1H-pyrazol-3-yl)-1-cyclopropyl-1H-tetrazole] | 181 nM
Cc1c(-c2nnnn2C2CCC2)nn(-c2ccc(Cl)cc2Cl)c1-c1ccc(Cl)cc1 [Example 600, 5-(5-(4-Chlorophenyl)-1-(2,4-dichlorophenyl)-4-methyl-1H-pyrazol-3-yl)-1-cyclobutyl-1H-tetrazole] | 42.3 nM
CCCCCCn1nnnc1-c1nn(-c2ccc(Cl)cc2Cl)c(-c2ccc(Cl)cc2)c1C [Example 603, 5-(5-(4-Chlorophenyl)-1-(2,4-dichlorophenyl)-4-methyl-1H-pyrazol-3-yl)-1-hexyl-1H-tetrazole] | 50.6 nM
Cc1c(-c2nnnn2C23CC4CC(CC(C4)C2)C3)nn(-c2ccc(Cl)cc2Cl)c1-c1ccc(Cl)cc1 [Example 605, 1-Adamantyl-5-(5-(4-chlorophenyl)-1-(2,4-dichlorophenyl)-4-methyl-1H-pyrazol-3-yl)-1H-tetrazole] | 128 nM
Cc1c(-c2nnnn2C2CCCC2)nn(-c2ccc(Cl)cc2Cl)c1-c1ccc(Br)cc1 [Example 606, 5-(5-(4-bromophenyl)-1-(2,4-dichlorophenyl)-4-methyl-1H-pyrazol-3-yl)-1-cyclopentyl-1H-tetrazole] | 11.6 nM
Cc1c(-c2nnnn2C2CCCCCC2)nn(-c2ccc(Cl)cc2Cl)c1-c1ccc(Br)cc1 [Example 608, 5-(5-(4-bromophenyl)-1-(2,4-dichlorophenyl)-4-methyl-1H-pyrazol-3-yl)-1-cycloheptyl-1H-tetrazole] | 16.5 nM
CCc1c(-c2nnnn2C2CCCC2)nn(-c2ccc(Cl)cc2Cl)c1-c1ccc(Br)cc1 [Example 609, 5-(5-(4-bromophenyl)-1-(2,4-dichlorophenyl)-4-ethyl-1H-pyrazol-3-yl)-1-cyclopentyl-1H-tetrazole] | 14.2 nM
CCc1c(-c2nnnn2C2CCCC2)nn(-c2ccc(Cl)cc2Cl)c1-c1ccc(Cl)cc1 [Example 610, 5-(5-(4-chlorophenyl)-1-(2,4-dichlorophenyl)-4-ethyl-1H-pyrazol-3-yl)-1-cyclopentyl-1H-tetrazole] | 22.6 nM
